Test results: patent publication US20260035365A1, “1H-PYRROLO[3,2-B]PYRIDINE DERIVATIVES AS IRREVERSIBLE INHIBITORS OF MUTANT EGFR FOR THE TREATMENT OF CANCER” (Bayer Aktiengesellschaft, priority 2022, published 2026)

Columns and labels:
[1] = tested on: BA/F3 (EGFR D770_N771 insSVD T790M) cells; assay: Ba/F3 cell survival assay (Cell Titer-Glo), EGFR-insSVD T790M; type: cell-based; conditions: Ba/F3 EGFR-D770-N771ins_SVD; 48 h, without IL-3, with EGF
Description: 293T cells from ATCC were transfected with pBABEpuro expression constructs for WT EGFR or EGFR-insSVD, or EGFR-insSVD T790M, and pCL-Eco packaging vector using Fugene-6 transfection reagent from Promega. Plates were incubated at 37° C. for 48 h. Retrovirus was harvested by filtering the media supernatant through a 0.45 μm filter.
Ba/F3 cells purchased from DSMZ were grown in RPMI+10% FBS+10 ng/mL IL-3 and infected with filtered retroviral supernatant at a 1:2 dilution. Polybrene was added to a concentration of 8 μg/mL, plates were spun for 90 min, and incubated for 16 h at 37° C. 2 μg/mL puromycin was added to the infected cells 24 h after infection and cells were continually grown in the presence of puromycin and 10 ng/mL IL-3. Following stably expressing Ba/F3 cell lines were generated: Ba/F3-EGFR-WT, Ba/F3-EGFR-insSVD, Ba/F3-EGFR-insSVD T790M, (Ba/F3-vector-control).
For cell survival assays, Ba/F3 cells were grown to a density of 1-2 million cells per mL, spun down and resuspended in media without IL-3, and replated at a concentration of 200,000-500,000 cells per mL. The cells ectopically expressing WT EGFR, EGFR-insSVD, or EGFR-insSVD T790M were plated with 10 ng/mL Millipore Culture grade EGF. The cells ectopically expressing pBABEpuro empty vector were plated with 10 ng/mL IL-3.
2 days later, cells were plated in 50 μL in a 384 well plate at a concentration of 4000 cells per well for cells assayed in the absence of IL-3 and 2000 cells per well for cells assayed in the presence of IL-3. 100 nL of compound was added to each well using a 100 nL pin head, and plates were incubated at 37° C. for 48 h.
Cell viability was measured by adding 20 μL of Cell Titer-Glo Luminescent Cell Viability Reagent diluted 1:3 in PBS. Plates were sealed with Perkin Elmer Top-Seal, inverted several times to mix, and immediately centrifuged at 1000 rpm for 2 min. Plates were incubated in low light conditions for 8-10 min and luminescence was measured.

BA/F3 (insSVD) cells = assay: Ba/F3 cell survival assay (Cell Titer-Glo), EGFR-insSVD; type: cell-based; conditions: Mus musculus, BaF3, 48 h, without IL-3, with EGF
Summary of the method: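 Ba/F3 cells stably expressing EGFR-insSVD or insSVD T790M via retrovirus (puromycin-selected), switched from IL-3 to 10 ng/mL EGF for 2 days, then plated at 4000 cells/well. Compound added by 100 nL pin transfer; 48 h at 37° C. Viability by CellTiter-Glo luminescence.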

[2] = molecular target: mutEGFR (D770_N771insSVD) (Homo sapiens, UniProt P00533, INS767SVD); assay: Exon20-mutant-EGFR (D770_N771insSVD) TR-FRET kinase assay; type: biochemical; conditions: 2 mM ATP, 15 min preincubation
Sequence of mutEGFR (D770_N771insSVD) (P00533 with tags, fused parts or gaps INS767SVD limits assumed): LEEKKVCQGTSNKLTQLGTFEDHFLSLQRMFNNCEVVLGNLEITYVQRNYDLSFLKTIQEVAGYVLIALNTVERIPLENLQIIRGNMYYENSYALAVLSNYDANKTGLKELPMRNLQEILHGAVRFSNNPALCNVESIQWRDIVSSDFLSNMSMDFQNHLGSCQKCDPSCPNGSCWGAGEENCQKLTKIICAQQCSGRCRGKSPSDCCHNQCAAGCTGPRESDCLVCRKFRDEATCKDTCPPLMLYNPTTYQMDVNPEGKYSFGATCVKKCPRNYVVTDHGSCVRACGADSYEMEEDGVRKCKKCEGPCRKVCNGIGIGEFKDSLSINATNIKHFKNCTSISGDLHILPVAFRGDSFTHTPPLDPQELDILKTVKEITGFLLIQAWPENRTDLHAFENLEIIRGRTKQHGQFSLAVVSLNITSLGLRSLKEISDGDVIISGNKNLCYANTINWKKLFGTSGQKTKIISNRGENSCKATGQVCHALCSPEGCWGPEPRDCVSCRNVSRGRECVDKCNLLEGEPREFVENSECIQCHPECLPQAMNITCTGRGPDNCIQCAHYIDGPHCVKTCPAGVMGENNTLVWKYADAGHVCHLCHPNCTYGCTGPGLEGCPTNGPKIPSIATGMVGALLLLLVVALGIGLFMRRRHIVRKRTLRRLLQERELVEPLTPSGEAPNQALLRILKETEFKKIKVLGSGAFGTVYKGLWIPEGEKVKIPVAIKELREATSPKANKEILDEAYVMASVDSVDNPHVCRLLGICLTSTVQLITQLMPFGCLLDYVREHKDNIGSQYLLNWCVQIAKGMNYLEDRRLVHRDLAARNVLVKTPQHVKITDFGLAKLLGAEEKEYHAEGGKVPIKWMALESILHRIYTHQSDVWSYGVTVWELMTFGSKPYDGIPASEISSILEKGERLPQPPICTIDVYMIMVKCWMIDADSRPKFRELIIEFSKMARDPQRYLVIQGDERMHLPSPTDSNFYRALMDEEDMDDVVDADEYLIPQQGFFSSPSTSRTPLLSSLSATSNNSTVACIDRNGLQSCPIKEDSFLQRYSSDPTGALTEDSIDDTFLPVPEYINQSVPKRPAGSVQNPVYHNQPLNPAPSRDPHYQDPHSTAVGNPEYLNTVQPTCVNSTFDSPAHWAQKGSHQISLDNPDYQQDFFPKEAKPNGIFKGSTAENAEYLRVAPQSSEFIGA
Summary of the method: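 GST-fused human EGFR fragment R669-A1210 carrying the SVD insertion, Sf9-expressed, typically 15 pg/μl, was preincubated with compound for 15 min at 22° C in pH 7.0 Hepes/MgCl2 buffer. Phosphorylation was read by HTRF (665/620 nm ratio), normalised to no-inhibitor and no-enzyme controls.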

[3] = molecular target: mutEGFR (D770_N771insNPG, T790); assay: mutEGFR (D770_N771insNPG, T790) kinase assay; type: biochemical, human
Sequence of mutEGFR (D770_N771insNPG, T790) (P00533 with tags, fused parts or gaps INS770NPG limits assumed): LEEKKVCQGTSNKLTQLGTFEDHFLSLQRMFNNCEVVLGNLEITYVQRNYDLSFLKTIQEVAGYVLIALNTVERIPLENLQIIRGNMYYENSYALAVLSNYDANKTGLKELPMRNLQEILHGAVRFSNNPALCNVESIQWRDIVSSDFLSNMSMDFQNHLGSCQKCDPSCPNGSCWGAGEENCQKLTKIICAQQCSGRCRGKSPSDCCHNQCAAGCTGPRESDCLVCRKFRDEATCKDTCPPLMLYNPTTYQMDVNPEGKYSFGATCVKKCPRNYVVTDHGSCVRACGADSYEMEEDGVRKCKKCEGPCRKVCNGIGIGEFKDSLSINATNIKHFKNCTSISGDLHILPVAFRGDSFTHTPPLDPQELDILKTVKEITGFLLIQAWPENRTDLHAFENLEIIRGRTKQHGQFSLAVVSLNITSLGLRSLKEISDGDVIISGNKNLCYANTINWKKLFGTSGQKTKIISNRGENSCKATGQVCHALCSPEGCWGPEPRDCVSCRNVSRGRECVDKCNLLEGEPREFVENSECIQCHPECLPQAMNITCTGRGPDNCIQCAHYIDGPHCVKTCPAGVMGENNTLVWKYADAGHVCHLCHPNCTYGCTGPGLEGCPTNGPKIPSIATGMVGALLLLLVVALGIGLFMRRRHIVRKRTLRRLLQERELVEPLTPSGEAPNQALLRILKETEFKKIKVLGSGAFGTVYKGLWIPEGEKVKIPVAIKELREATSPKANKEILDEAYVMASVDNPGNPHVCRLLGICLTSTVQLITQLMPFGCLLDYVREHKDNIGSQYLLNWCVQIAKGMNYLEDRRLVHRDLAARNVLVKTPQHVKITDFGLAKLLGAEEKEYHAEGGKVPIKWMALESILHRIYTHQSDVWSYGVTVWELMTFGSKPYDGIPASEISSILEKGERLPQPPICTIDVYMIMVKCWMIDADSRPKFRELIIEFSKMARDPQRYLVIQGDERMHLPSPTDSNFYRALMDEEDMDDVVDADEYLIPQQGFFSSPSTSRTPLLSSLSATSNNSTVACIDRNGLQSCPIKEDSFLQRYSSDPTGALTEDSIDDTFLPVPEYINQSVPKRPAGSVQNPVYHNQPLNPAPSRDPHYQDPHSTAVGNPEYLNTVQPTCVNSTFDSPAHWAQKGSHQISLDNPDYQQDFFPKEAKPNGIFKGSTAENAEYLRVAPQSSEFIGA

Row | Compound | IC50 [1] [nM] | IC50 (BA/F3 (insSVD) cells) [nM] | IC50 [2] [nM] | IC50 [3] [nM]
1 | C=CC(=O)N(C)CCOc1cnccc1-c1[nH]c2cccnc2c1-c1ccc(Cl)c(OC)c1 [Example 15, N-[2-({4-[3-(4-chloro-3-methoxyphenyl)-1H-pyrrolo[3,2-b]pyridin-2-yl]pyridin-3-yl}oxy)ethyl]-N-methylprop-2-enamide] | 9980 | 9240 | 1540 | 4850
2 | CN(C)C/C=C/C(=O)N1CCC[C@H]1COc1cnccc1-c1[nH]c2cccnc2c1-c1ccccc1 [Example 37, (2E)-4-(dimethylamino)-1-[(2S)-2-({[4-(3-phenyl-1H-pyrrolo[3,2-b]pyridin-2-yl)pyridin-3-yl]oxy}methyl)pyrrolidin-1-yl]but-2-en-1-one] | 9130 | 229 | 3.7 | 11.2
3 | C=CC(=O)N(C)CCOc1cnccc1-c1[nH]c2cccnc2c1-c1ccc2cccnc2c1 [Example 18, N-methyl-N-[2-({4-[3-(quinolin-7-yl)-1H-pyrrolo[3,2-b]pyridin-2-yl]pyridin-3-yl}oxy)ethyl]prop-2-enamide] | 9980 | 7980 | 549 | 1670
4 | C=CC(=O)N(C)CCOc1cnccc1-c1[nH]c2ccc(OC)nc2c1-c1ccccc1 [Example 8, N-(2-{[4-(5-methoxy-3-phenyl-1H-pyrrolo[3,2-b]pyridin-2-yl)pyridin-3-yl]oxy}ethyl)-N-methylprop-2-enamide] | 8930 | 5270 | 198 | 520
5 | C=CS(=O)(=O)N1CCC[C@H]1COc1cnccc1-c1[nH]c2cccnc2c1-c1cccc(Cl)c1 [Example 40, 3-(3-chlorophenyl)-2-(3-{[(2S)-1-(ethenesulfonyl)pyrrolidin-2-yl]methoxy}pyridin-4-yl)-1H-pyrrolo[3,2-b]pyridine] | 67.9 | 8.54 | 0.193 | 0.29
6 | C=CC(=O)N(C)CCOc1cnccc1-c1[nH]c2cccnc2c1-c1ccc(Cl)cc1 [Example 11, N-[2-({4-[3-(4-chlorophenyl)-1H-pyrrolo[3,2-b]pyridin-2-yl]pyridin-3-yl}oxy)ethyl]-N-methylprop-2-enamide] | 9980 | 1120 | 13.4 | 46.2
7 | C=CS(=O)(=O)N(C)CCOc1cnccc1-c1[nH]c2cccnc2c1-c1ccc2cc[nH]c2c1 [Example 30, N-[2-({4-[3-(1H-indol-6-yl)-1H-pyrrolo[3,2-b]pyridin-2-yl]pyridin-3-yl}oxy)ethyl]-N-methylethenesulfonamide] | 831 | 62.2 | 0.513 | 1.82
8 | C=CC(=O)NCCOc1cnccc1-c1[nH]c2cccnc2c1-c1ccccc1 [Example 2, N-(2-{[4-(3-phenyl-1H-pyrrolo[3,2-b]pyridin-2-yl)pyridin-3-yl]oxy}ethyl)prop-2-enamide] | 9980 | 5020 | 461 | 751
9 | C=CS(=O)(=O)N(C)CCOc1cnccc1-c1[nH]c2cccnc2c1-c1ccccc1 [Example 25, N-methyl-N-(2-{[4-(3-phenyl-1H-pyrrolo[3,2-b]pyridin-2-yl)pyridin-3-yl]oxy}ethyl)ethenesulfonamide] | 3860 | 38.8 | 0.501 | 2.08
10 | C=CC(=O)N(C)CCOc1cnccc1-c1[nH]c2cccnc2c1-c1cccc(Cl)c1OC [Example 21, N-[2-({4-[3-(3-chloro-2-methoxyphenyl)-1H-pyrrolo[3,2-b]pyridin-2-yl]pyridin-3-yl}oxy)ethyl]-N-methylprop-2-enamide] | 9980 | 4160 | 290 | 2260
11 | C=CC(=O)N(C)CCOc1cnccc1-c1[nH]c2cccnc2c1-c1ccc(Cl)c(Cl)c1 [Example 23, N-[2-({4-[3-(3,4-dichlorophenyl)-1H-pyrrolo[3,2-b]pyridin-2-yl]pyridin-3-yl}oxy)ethyl]-N-methylprop-2-enamide] | 8860 | 2150 | 36.8 | 49.3
